Source: patent US6495699B2, “Metalloproteinase inhibitors, pharmaceutical compositions containing them, and their use” (Agouron Pharmaceuticals Inc., priority 1996, dated 2002)
Counter-ions that a name gives are not always drawn.

What was measured:
[1] = target: T1, human collagenase-3 (Coll3) (Homo sapiens, UniProt P45452); experiment: Fluorometric MCA-peptide hydrolysis assay, collagenase-3 (Coll3); assay type: biochemical; conditions: apparent Ki; 10 μM MCA peptide substrate, 37° C., pH 7.5; read-out: Coll3 (Ki,app)
T1 construct: the catalytic domain was liberated by treatment with 2 mM APMA at room temperature overnight; ubiquitin (N, cleaved yes); made in house; host or cells: E. coli
Description: The propeptide and catalytic domain of human collagenase-3 (Coll3) was expressed in E. coli as an N-terminal fusion protein with ubiquitin. After purification of the fusion from inclusion bodies, the catalytic domain was liberated by treatment with 2 mM APMA at room temperature overnight. Final purification was completed using copper chelate chromatography.
(§1) Assays were performed in assay buffer (50 mM Tricine pH 7.5, 200 mM sodium chloride, 10 mM calcium chloride, 0.5 mM zinc acetate containing 2% dimethyl sulfoxide (DMSO)) once the substrate and inhibitor were diluted into it. Stock solutions of inhibitors were prepared in 100% DMSO. Stock solutions of the substrate were prepared in 100% DMSO at a concentration of 6 mM.
(§2) The assay method was based on the hydrolysis of MCA-Pro-Leu-Gly-Leu-DPA-Ala-Arg-NH2 (American Peptide Co.) at 37° C. (see Knight, C. G. et al., FEBS, 1992, 296, 263-266). The fluorescence changes were monitored with a Perkin-Elmer LS-50B fluorimeter using an excitation wavelength of 328 nm and an emission wavelength of 393 nm. The substrate concentration used in the assays was 10 μM. The inhibitor was diluted into the assays from a solution in 100% DMSO, and controls substituted an equal volume of DMSO so that the final DMSO concentration from inhibitor and substrate dilution in all assays was 2%. […] Proper determination of steady-state rates of substrate cleavage required assay lengths of 60 minutes to allow for complete equilibration of the enzyme-inhibitor complex.
The Km for the MCA peptide substrate with the matrix metalloproteinases is quite high and exceeds its solubility under assay conditions. Consequently, the apparent Ki (Ki,app) was determined to describe the strength of inhibition. However, in this case, Ki,app would be essentially equal to Ki since [S]<<Km. For the determination of Ki,app, the concentration of the inhibitor was varied at a constant and low concentration of substrate and the steady-state rates of fluorescence change determined. […] For slow-binding inhibitors, onset of inhibition curves were collected for at least 45 minutes so that equilibrium was established. Steady-state rates of fluorescence change were obtained by fitting a curve to an equation for a single exponential decay containing a linear phase. The fitted value of the linear phase was taken as the steady-state rate. The steady-state rates were fitted to the Michaelis equation describing competitive inhibition by non-linear methods. Data resulting from tight-binding inhibition was analyzed, and Ki,app determined by fitting the data to the tight-binding equation of Morrison (Biochem. Biophys. Acta, vol. 185, pp. 269-286 (1969)) by non-linear methods.

[2] = target: T2, catalytic domain of human stromelysin (Hsln) (Homo sapiens, UniProt P08254); experiment: Fluorometric MCA-peptide hydrolysis assay, stromelysin (Hsln); assay type: biochemical; conditions: apparent Ki; 10 μM MCA peptide substrate, 37° C., pH 7.5; read-out: Hsln (Ki,app)
T2 construct: The catalytic domain of human stromelysin (Hsln) was obtained by expression and purification of a C-terminally truncated prostromelysin-1; made in house; host or cells: E. coli BL21
Description: The catalytic domain of human stromelysin (Hsln) was obtained by expression and purification of a C-terminally truncated prostromelysin-1 from E. coli host BL21 (see Marcy et al. Biochem., 1991, 30, 6476). The subsequent activation of the mature form (Hsln) was completed with 2 mM APMA for 1 hour at 37° C., followed by separation using a sizing column.
as §1, §2
(§3) The Km for the MCA peptide substrate with the matrix metalloproteinases is quite high and exceeds its solubility under assay conditions. Consequently, the apparent Ki (Ki,app) was determined to describe the strength of inhibition. However, in this case, Ki,app would be essentially equal to Ki since [S]<<Km. For the determination of Ki,app, the concentration of the inhibitor was varied at a constant and low concentration of substrate and the steady-state rates of fluorescence change determined. In most cases absorptive quench due to the presence of ligand was not observed. For slow-binding inhibitors, onset of inhibition curves were collected for at least 45 minutes so that equilibrium was established. Steady-state rates of fluorescence change were obtained by fitting a curve to an equation for a single exponential decay containing a linear phase. The fitted value of the linear phase was taken as the steady-state rate. The steady-state rates were fitted to the Michaelis equation describing competitive inhibition by non-linear methods. Data resulting from tight-binding inhibition was analyzed, and Ki,app determined by fitting the data to the tight-binding equation of Morrison (Biochem. Biophys. Acta, vol. 185, pp. 269-286 (1969)) by non-linear methods.

[3] = target: T3, fibroblast collagenase-1 catalytic domain (HFC) (Homo sapiens, UniProt P03956); experiment: Fluorometric MCA-peptide hydrolysis assay, fibroblast collagenase-1 (HFC); assay type: biochemical; conditions: apparent Ki; 10 μM MCA peptide substrate, 37° C., pH 7.5; read-out: HFC (Ki,app)
T3 construct: The catalytic domain of human collagenase-1 was expressed as a fusion protein with ubiquitin in E. coli; ubiquitin (cleaved yes); made in house; host or cells: E. coli
T3 sequence (P03956 100-269 limits assumed): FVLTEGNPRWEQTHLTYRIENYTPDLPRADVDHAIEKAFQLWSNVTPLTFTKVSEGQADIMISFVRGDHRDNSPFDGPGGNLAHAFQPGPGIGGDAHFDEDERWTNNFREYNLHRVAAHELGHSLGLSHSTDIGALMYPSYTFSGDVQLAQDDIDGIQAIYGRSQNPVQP
Description: The catalytic domain of human collagenase-1 was expressed as a fusion protein with ubiquitin in E. coli (see Gehring, E. R., J Biol. Chem., 1995, 270, 22507). After purification of the fusion protein, the fibroblast collagenase-1 catalytic domain (HFC) was released either by treatment with purified, active stromelysin-1 (1:50 w/w ratio), which generated nearly 100% N-terminal Phe1, or by autoprocessing the concentrated collagenase-1 fusion and then incubating at 37° C. for 1 hour. Final purification was completed using zinc chelate chromatography.
as §1, §2, §3

Human matrilysin (Matr) = target: T4, Human matrilysin (Matr) (Homo sapiens, UniProt P09237); experiment: Fluorometric MCA-peptide hydrolysis assay, matrilysin (Matr); assay type: biochemical; conditions: apparent Ki; 10 μM MCA peptide substrate, 37° C., pH 7.5; read-out: Matr (Ki,app)
T4 construct: the catalytic domain was liberated by treatment with 2 mM APMA at 37° C. for 2 hours; ubiquitin (cleaved yes); made in house; host or cells: E. coli
T4 sequence (P09237 95-267): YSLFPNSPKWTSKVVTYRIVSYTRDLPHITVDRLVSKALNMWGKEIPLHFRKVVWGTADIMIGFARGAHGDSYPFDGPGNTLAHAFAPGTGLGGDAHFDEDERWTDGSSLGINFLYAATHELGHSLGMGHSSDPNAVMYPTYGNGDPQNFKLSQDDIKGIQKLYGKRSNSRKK
Description: Human matrilysin (Matr) was expressed in E. coli as a fusion protein with ubiquitin. After purification of the matrilysin/ubiquitin fusion from inclusion bodies, the catalytic domain was liberated by treatment with 2 mM APMA at 37° C. for 2 hours. Final purification was complete using copper chelate chromatography.
as §1, §2, §3

[4] = target: T5, human progelatinase A (GelA), catalytic and fibronectin-like portion (Homo sapiens, UniProt P08253); experiment: Fluorometric MCA-peptide hydrolysis assay, gelatinase A (GelA); assay type: biochemical; conditions: apparent Ki; 10 μM MCA peptide substrate, 37° C., pH 7.5
T5 construct: The catalytic and fibronectin-like portion of human progelatinase A (GelA) was expressed as a fusion protein with ubiquitin; ubiquitin; made in house; host or cells: E. coli
Description: The catalytic and fibronectin-like portion of human progelatinase A (GelA) was expressed as a fusion protein with ubiquitin in E. Coli. Assays were carried out on autocatalytically activated material.
as §1, §2, §3

T2 sequence (P08254 100-272 limits assumed): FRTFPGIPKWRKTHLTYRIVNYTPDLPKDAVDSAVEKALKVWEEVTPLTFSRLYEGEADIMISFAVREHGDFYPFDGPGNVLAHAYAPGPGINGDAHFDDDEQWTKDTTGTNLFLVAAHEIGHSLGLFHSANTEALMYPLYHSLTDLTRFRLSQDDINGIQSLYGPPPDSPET
T5 sequence (P08253 110-465 limits assumed): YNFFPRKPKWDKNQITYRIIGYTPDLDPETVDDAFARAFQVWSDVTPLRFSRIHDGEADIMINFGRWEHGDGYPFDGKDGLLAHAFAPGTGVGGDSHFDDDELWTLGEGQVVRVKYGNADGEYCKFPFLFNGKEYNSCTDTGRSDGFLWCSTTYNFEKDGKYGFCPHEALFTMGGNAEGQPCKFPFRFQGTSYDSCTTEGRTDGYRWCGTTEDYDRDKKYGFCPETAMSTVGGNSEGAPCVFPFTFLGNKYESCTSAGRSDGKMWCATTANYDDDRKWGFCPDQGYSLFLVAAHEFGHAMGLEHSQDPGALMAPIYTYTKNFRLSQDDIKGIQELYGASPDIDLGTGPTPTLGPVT

Row | Structure (SMILES) | melting point | Ki [1] | Ki [2] | Ki [3] | Ki (Human matrilysin (Matr)) | GelA (Ki,app) [4]
1 | CC(C)(C)[C@@H](CO)NC(=O)[C@H](CC(=O)NO)n1cnc(-c2ccc(-c3ccccc3)cc2)c1 [Example 19(d), 3(S)-(3-Biphenyl-4-yl-1H-imidazol-1-yl)-N^4-(2,2-dimethyl-1(S)-hydroxymethylpropyl)-N^1-hydroxy-succindiamide] | 134.5 to 136.5 °C | 43 nM | 120 nM | > 100000 nM | – | –
2 | CNC(=O)[C@@H](NC(=O)C(CC(=O)O)n1cnc(-c2ccc(-c3ccccc3)cc2)c1)C(C)(C)C (mixture of isomers) [Example 18(c)] | 187 to 188.2 °C | 31 nM | 180 nM | 24000 nM | – | –
3 | O=C(O)C[C@H](C(=O)N[C@@H]1c2ccccc2C[C@H]1O)n1ccc(-c2ccc(-c3ccncc3)cc2)c1 [Example 6(a), N-(2(R)-Hydroxyindan-1(R)-yl)-3(R)-[3-[4-(pyridin-4-yl)phenyl]-1H-pyrrol-1-yl]succinamic Acid] | – | 15.6 nM | 15 nM | 8860 nM | 1500 nM | 6.62 nM
4 | O=C(O)C[C@H](C(=O)N[C@H](CO)c1ccccc1)n1ccc(-c2ccc(-c3ccncc3)cc2)c1 [Example 5(b), N-(2-Hydroxy-1(S)-phenylethyl)-3(R)-[3-[4-(pyridin-4-yl)phenyl]-1H-pyrrol-1-yl]succinamic Acid] | – | 9.1 nM | 30 nM | > 12000 nM | 5200 nM | 1.04 nM
5 | CC(C)(C)[C@@H](CO)NC(=O)C(CC(=O)NO)n1cnc(-c2ccc(-c3ccccc3)cc2)c1 (mixture of isomers) [Example 19(b), 3(RS)-(3-Biphenyl-4-yl-1H-imidazol-1-yl)-N^4-(2,2-dimethyl-1(S)-hydroxymethylpropyl)-N^1-hydroxy-succindiamide] | – | 9.7 nM | 17 nM | 66000 nM | – | –
6 | COC(=O)c1ccc(NC(=O)[C@H](CC(C)C)NC(=O)[C@@H](CC(=O)O)c2cccs2)cc1 [Example 17(a), 4-[2(S)-(2(R)-Carboxymethyl-2-(thien-2-yl)acetylamino]-4-methyl-valeroyl]-aminobenzoic Acid Methyl Ester] | 197 to 200 °C | – | 965 nM | 32000 nM | 454 nM | –
7 | O=C(CC(C(=O)N[C@H]1CCCCNC1=O)n1cnc(-c2ccc(-c3ccccc3)cc2)c1)NO (mixture of isomers) [Example 19(a)] | – | 43 nM | 31 nM | 57000 nM | – | –
8 | CC(C)(C)[C@@H](CO)NC(=O)[C@@H](CC(=O)NO)n1cnc(-c2ccc(-c3ccccc3)cc2)c1 [Example 19(c), 3(R)-(3-Biphenyl-4-yl-1H-imidazol-1-yl)-N^4-(2,2-dimethyl-1(S)-hydroxymethylpropyl)-N^1-hydroxy-succindiamide] | 157.5 to 160 °C | 6.5 nM | 17 nM | 45000 nM | – | –
9 | COC(=O)c1ccc(NC(=O)[C@H](CC(C)C)NC(=O)[C@@H](CC(=O)O)n2ccc(-c3ccc(-c4ccccc4)cc3)c2)cc1 [Example 1(k), 4-[2S-[2(R)-[3-(Biphenyl-4-yl)-1H-pyrrol-1-yl]-3-carboxy-propionylamino]-4-methyl-pentanoylamino]benzoic Acid Methyl Ester] | 209 to 211 °C | 40 nM | 0.15 nM | – | 11 nM | 1.9 nM
10 | NC(=O)c1ccc(-c2ccc(-c3ccn([C@H](CC(=O)O)C(=O)N[C@H](CO)Cc4ccccc4)c3)cc2)cc1 [Example 4(b), N-(1-Benzyl-2-hydroxyethyl)-3(R)-[3-(4′-carbamoylbiphenyl-4-yl)-1H-pyrrol-1-yl]succinamic Acid] | 218 to 220 °C | 2.13 nM | 23 nM | – | 1520 nM | 1.11 nM
11 | CNC(=O)[C@@H](NC(=O)C(CC(=O)NO)n1cnc(-c2ccc(-c3ccccc3)cc2)c1)C(C)(C)C (mixture of isomers) [Example 19(e)] | – | 0.13 nM | 2.3 nM | 310 nM | – | –
12 | CC(C)(C)[C@H](NC(=O)[C@@H](CC(=O)O)n1ccc(-c2ccc(-c3ccc(C#N)cc3)cc2)c1)C(=O)Nc1ccncc1 [Example 5(d), 3(R)-[3-(4′-Cyanobiphenyl-4-yl)-1H-pyrrol-1-yl]-N-[2,2-dimethyl-1(S)-(pyridin-4-ylcarbamoyl)propyl]succinamic Acid Formate Salt] | – | 0.23 nM | 1.6 nM | > 2000 nM | 4.5 nM | 0.028 nM
13 | CNC(=O)[C@@H](NC(=O)[C@@H](CC(=O)O)n1ccc(-c2ccncc2)c1)C(C)(C)C [Example 1(d), N-[2,2-Dimethyl-1(S)-(methylcarbamoyl)propyl]-3(R)-[3-(pyridin-4-yl)-1H-pyrrol-1-yl]succinamic Acid] | 145 to 148 °C | 24 nM | 1220 nM | 4500 nM | – | 3.9 nM
